Reference: PMC7450057, “Enhancing intracellular accumulation and target engagement of PROTACs with reversible covalent chemistry” (Nature Communications, 2020)
Where “and” joins values, the source holds several entries; their conditions need not be identical. Identical values can stand only once.

Key:
BTK-NanoLuc fusion = target: T1, BTK-NanoLuc fusion (Homo sapiens, UniProt Q06187); assay: NanoBRET BTK in-cell target engagement assay; type: cell-based; conditions: for IC50: HEK-293 cells, BTK tracer 1.0 µM, Table 1 / Fig. 3c, triplicates, read-out: BTK TE IC50,TE; for K′P,D (relative intracellular accumulation coefficient): Kd (BTK)/IC50,TE (BTK); for intracellular accumulation of RC-1 relative to the compound: from K′P,D values, BTK (Table 1)
T1 construct: host or cells: HEK 293T/17
Procedure: The target engagement assay for BTK or CRBN was from Promega (BTK kit, Cat. No. N2500; CRBN kit, Cat. No. CS1810C136) and was performed according to the manufacture’s instruction with some modifications. Briefly, HEK 293/T17 cells (ATCC) were transiently transfected with BTK-NanoLuc® fusion vector or NanoLuc®-CRBN fusion vector (Promega) in 0.125 M CaCl2 and 1x HBS. Forty-eight hours after transfection, the cells were resuspended in Opti-MEM medium (Life Technologies, Cat. No. 11058021) at the density of 2 × 10^5 cells per mL and were plated into 96-well plates (Corning, Cat. No. CLS3600). Cells were incubated with 1.0 µM (BTK) or 0.5 µM (CRBN) NanoBRET™ Tracer and serially diluted unlabeled BTK PROTAC compounds (from 10 to 0.0032 µM, 5-fold dilution) for 2 h at 37 °С with 5% CO2 in an incubator. After 2 h incubation, the 3X Nano-Glo® Substrate with NanoLuc® extracellular inhibitor were added to cells and developed for 3 min at room temperature. BRET signals were collected using a BioTek SYNERGY H1 microplate reader equipped with a 450/80-nm BP filter for donor emission and a 610-nm LP filter for acceptor emission. BRET Ratio was calculated with the equation: [(Acceptor sample/Donor sample)–(Acceptor no tracer control/Donor no tracer control)] × 1000. The IC50 of the compound against its BTK or CRBN tracer was calculated using GraphPad Prism software.

full-length BTK protein = target: T2, full-length BTK protein (Homo sapiens, UniProt Q06187); assay: BTK binding assay (Kd, Eurofins DiscoverX); conditions: for Kd: full-length BTK, standard assay buffer in the presence of DTT (6 mM) (DiMe compounds: BTK_+DTT per Supplementary Data 1), duplicates
T2 construct: Kd was measured using the full-length BTK protein by Eurofins DiscoverX; T7 phage fusion or DNA tag for qPCR (generic vendor protocol); purchased Eurofins DiscoverX
Procedure: The dissociation equilibrium constant Kd was measured using the full-length BTK protein by Eurofins DiscoverX according to the following protocol: kinase-tagged T7 phage strains were prepared in an E. coli host derived from the BL21 strain. E. coli were grown to log-phase and infected with T7 phage and incubated with shaking at 32 °C until lysis. The lysates were centrifuged and filtered to remove cell debris. The remaining kinases were produced in HEK-293 cells and subsequently tagged with DNA for qPCR detection. […] The liganded beads were blocked with excess biotin and washed with blocking buffer (SeaBlock (Pierce), 1% BSA, 0.05% Tween 20, 1 mM DTT) to remove unbound ligand and to reduce non-specific binding. […] Test compounds were prepared as 111X stocks in 100% DMSO. […] The compounds were then diluted directly into the assays such that the final concentration of DMSO was 0.9%. All reactions performed in polypropylene 384-well plate. Each was a final volume of 0.02 mL. […] The kinase concentration in the eluates was measured by qPCR. For kinase-binding constant determination, an 11-point 3-fold serial dilution of each test compound was prepared in 100% DMSO at 100x final test concentration and subsequently diluted to 1x in the assay (final DMSO concentration = 1%). […] Binding constants (Kd values) were calculated with a standard dose-response curve using the Hill equation: Response=Background+Signal−Background/1+KdHillSlope/Dose^HillSlope
The Hill Slope was set to −1. Curves were fitted using a non-linear least square fit with the Levenberg-Marquardt algorithm.

MOLM-14 cells = assay: AlamarBlue cell viability assay, MOLM-14; conditions: Supplementary Figure 7, replicates
Procedure: The IC50 was calculated using GraphPad Prism software with a four-parameter dose-response curve fit.

T1 sequence (Q06187 whole entry, the tested form may be a part): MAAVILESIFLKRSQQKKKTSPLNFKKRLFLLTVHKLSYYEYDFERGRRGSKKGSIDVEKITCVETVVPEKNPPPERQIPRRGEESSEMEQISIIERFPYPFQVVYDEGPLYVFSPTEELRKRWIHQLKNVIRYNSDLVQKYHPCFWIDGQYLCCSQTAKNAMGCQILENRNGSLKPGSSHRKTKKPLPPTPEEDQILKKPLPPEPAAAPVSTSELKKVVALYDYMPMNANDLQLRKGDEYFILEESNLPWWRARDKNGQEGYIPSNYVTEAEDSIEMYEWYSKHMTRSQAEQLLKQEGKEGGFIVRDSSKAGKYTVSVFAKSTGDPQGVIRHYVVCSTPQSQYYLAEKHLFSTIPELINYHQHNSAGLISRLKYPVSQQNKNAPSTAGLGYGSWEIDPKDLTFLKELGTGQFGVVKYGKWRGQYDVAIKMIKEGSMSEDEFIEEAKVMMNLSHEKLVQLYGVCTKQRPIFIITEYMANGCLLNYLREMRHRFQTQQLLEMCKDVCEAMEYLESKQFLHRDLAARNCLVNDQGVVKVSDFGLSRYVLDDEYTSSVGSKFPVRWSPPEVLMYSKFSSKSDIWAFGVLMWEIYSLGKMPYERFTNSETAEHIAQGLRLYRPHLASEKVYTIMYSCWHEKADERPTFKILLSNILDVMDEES
T2 sequence (Q06187 whole entry, the tested form may be a part): as above

CN(CCCNC(=O)CNc1cccc2c1C(=O)N(C1CCC(=O)NC1=O)C2=O)C(C)(C)CC(C#N)C(=O)N1CCC[C@@H](n2nc(-c3ccc(Oc4ccccc4)cc3)c3c(N)ncnc32)C1 (stereo partly shown) [RNC-1-CN-DiMe]
IC50 (BTK-NanoLuc fusion): 0.93 µM
K′P,D (relative intracellular accumulation coefficient) (BTK-NanoLuc fusion): 3.1 × 10^−2
intracellular accumulation of RC-1 relative to the compound (BTK-NanoLuc fusion): 5 folds
Signal (full-length BTK protein; BTK_+DTT, compound concentration 0.0169 nM, listed as RNC-CN-DiMe): 2.50E-05 and 2.61E-05
Signal (full-length BTK protein; BTK_+DTT, compound concentration 0.152 nM): 3.53E-05
Signal (full-length BTK protein; BTK_+DTT, compound concentration 0.457 nM, listed as RNC-CN-DiMe): 3.21E-05 and 2.23E-05
Signal (full-length BTK protein; BTK_+DTT, compound concentration 1.37 nM, listed as RNC-CN-DiMe): 2.55E-05 and 2.14E-05
Signal (full-length BTK protein; BTK_+DTT, compound concentration 4.12 nM, listed as RNC-CN-DiMe): 2.68E-05 and 2.21E-05
Signal (full-length BTK protein; BTK_+DTT, compound concentration 12.3 nM, listed as RNC-CN-DiMe): 2.12E-05 and 1.99E-05
Signal (full-length BTK protein; BTK_+DTT, compound concentration 37 nM, listed as RNC-CN-DiMe): 1.30E-05 and 9.19E-06
Signal (full-length BTK protein; BTK_+DTT, compound concentration 111 nM, listed as RNC-CN-DiMe): 5.21E-06 and 4.55E-06
Signal (full-length BTK protein; BTK_+DTT, compound concentration 333 nM, listed as RNC-CN-DiMe): 1.18E-06 and 1.22E-06
Signal (full-length BTK protein; BTK_+DTT, compound concentration 1000 nM, listed as RNC-CN-DiMe): 2.41E-07 and 2.28E-07
Signal (full-length BTK protein; BTK_-DTT, compound concentration 0.152 nM): 2.77E-05
Kd (full-length BTK protein): 0.029 µM

CN(CCCC(=O)N1CCC[C@@H](n2nc(-c3ccc(Oc4ccccc4)cc3)c3c(N)ncnc32)C1)CCOCCNC(=O)CNc1cccc2c1C(=O)N(C1CCC(=O)NC1=O)C2=O (stereo partly shown) [RNC-3]
Cell viability, MOML-14 (MOLM-14 cells; drug concentration 1.00E-05 M): 41.7673 and 39.1993 and 57.4163 and 48.1542 and 48.9004
Cell viability, MOML-14 (MOLM-14 cells; drug concentration 1.60E-08 M): 96.7473 and 87.6169 and 107.151 and 102.3 and 127.409
Cell viability, MOML-14 (MOLM-14 cells; drug concentration 2.00E-06 M): 75.1942 and 80.0887 and 89.5483 and 81.8665 and 89.4166
Cell viability, MOML-14 (MOLM-14 cells; drug concentration 3.20E-09 M): 75.7649 and 76.4014 and 100.083 and 102.234 and 81.9543
Cell viability, MOML-14 (MOLM-14 cells; drug concentration 4.00E-07 M): 62.3107 and 94.9036 and 99.6225 and 103.727 and 94.5305
Cell viability, MOML-14 (MOLM-14 cells; drug concentration 6.40E-10 M): 107.063 and 96.7253 and 127.343 and 114.679 and 82.7444
Cell viability, MOML-14 (MOLM-14 cells; drug concentration 8.00E-08 M): 77.6963 and 91.9187 and 116.522 and 86.0147 and 77.6085

CN(CCCC(=O)N1CCC[C@@H](n2nc(-c3ccc(Oc4ccccc4)cc3)c3c(N)ncnc32)C1)CCOCCNC(=O)CNc1ccc2c(c1)C(=O)N(C1CCC(=O)NC1=O)C2=O (stereo partly shown) [RNC-10]
Cell viability, MOML-14 (MOLM-14 cells; drug concentration 1.00E-05 M): 20.4373 and 14.3566 and 19.5812 and 10.2077 and 15.081
Cell viability, MOML-14 (MOLM-14 cells; drug concentration 1.60E-08 M): 105.787 and 111.889 and 72.4196 and 87.9176 and 69.5658
Cell viability, MOML-14 (MOLM-14 cells; drug concentration 2.00E-06 M): 69.7853 and 58.8313 and 63.507 and 54.1116 and 44.6942
Cell viability, MOML-14 (MOLM-14 cells; drug concentration 3.20E-09 M): 101.374 and 90.2665 and 79.5759 and 58.2825 and 70.4
Cell viability, MOML-14 (MOLM-14 cells; drug concentration 4.00E-07 M): 94.3057 and 78.2807 and 83.198 and 62.2338 and 64.8242
Cell viability, MOML-14 (MOLM-14 cells; drug concentration 6.40E-10 M): 98.3448 and 99.8376 and 85.8542 and 80.1905 and 70.3561
Cell viability, MOML-14 (MOLM-14 cells; drug concentration 8.00E-08 M): 101.967 and 84.7346 and 87.9396 and 100.716 and 97.1814

CN(C/C=C/C(=O)N1CCC[C@@H](n2nc(-c3ccc(Oc4ccccc4)cc3)c3c(N)ncnc32)C1)CCOCCNC(=O)CNc1ccc2c(c1)C(=O)N(C1CCC(=O)NC1=O)C2=O (stereo partly shown) [IRC-10]
Cell viability, MOML-14 (MOLM-14 cells; drug concentration 1.00E-05 M): 75.82 and 58.3378 and 68.0769 and 46.8499 and 54.5004
Cell viability, MOML-14 (MOLM-14 cells; drug concentration 1.60E-08 M): 97.1244 and 98.6788 and 78.5933 and 90.154 and 64.4582
Cell viability, MOML-14 (MOLM-14 cells; drug concentration 2.00E-06 M): 114.76 and 85.758 and 93.5542 and 68.0284 and 77.3303
Cell viability, MOML-14 (MOLM-14 cells; drug concentration 3.20E-09 M): 99.6503 and 95.7157 and 83.0135 and 73.4201 and 68.8541
Cell viability, MOML-14 (MOLM-14 cells; drug concentration 4.00E-07 M): 101.229 and 92.1212 and 88.8668 and 84.1065 and 86.0252
Cell viability, MOML-14 (MOLM-14 cells; drug concentration 6.40E-10 M): 105.091 and 113.591 and 102.055 and 78.059 and 83.1593
Cell viability, MOML-14 (MOLM-14 cells; drug concentration 8.00E-08 M): 111.6 and 85.6366 and 80.0019 and 73.9301 and 92.4127

CN(C/C=C/C(=O)N1CCC[C@@H](n2nc(-c3ccc(Oc4ccccc4)cc3)c3c(N)ncnc32)C1)CCOCCNC(=O)CNc1cccc2c1C(=O)N(C1CCC(=O)NC1=O)C2=O (stereo partly shown) [IRC-3]
Cell viability, MOML-14 (MOLM-14 cells; drug concentration 1.00E-05 M): 33.9254 and 29.7755 and 25.5011 and 24.5466 and 23.5092
Cell viability, MOML-14 (MOLM-14 cells; drug concentration 1.60E-08 M): 86.2431 and 93.4971 and 75.2168 and 81.4209 and 78.2878
Cell viability, MOML-14 (MOLM-14 cells; drug concentration 2.00E-06 M): 87.4798 and 73.7851 and 74.2831 and 71.2537 and 90.0734
Cell viability, MOML-14 (MOLM-14 cells; drug concentration 3.20E-09 M): 87.9238 and 88.7455 and 83.4544 and 84.1599 and 82.3547
Cell viability, MOML-14 (MOLM-14 cells; drug concentration 4.00E-07 M): 86.2555 and 86.2763 and 83.0809 and 75.6111 and 85.2388
Cell viability, MOML-14 (MOLM-14 cells; drug concentration 6.40E-10 M): 91.0487 and 98.1035 and 82.7281 and 78.682 and 82.9771
Cell viability, MOML-14 (MOLM-14 cells; drug concentration 8.00E-08 M): 83.1182 and 78.35 (2×) and 67.9338 and 81.6492

CN(CCCNC(=O)CNc1cccc2c1C(=O)N(C1CCC(=O)NC1=O)C2=O)C(C)(C)/C=C/C(=O)N1CCC[C@@H](n2nc(-c3ccc(Oc4ccccc4)cc3)c3c(N)ncnc32)C1 (stereo partly shown) [IRC-1-DiMe]
IC50 (BTK-NanoLuc fusion): 0.38 µM
K′P,D (relative intracellular accumulation coefficient) (BTK-NanoLuc fusion): 2.9 × 10^−2
intracellular accumulation of RC-1 relative to the compound (BTK-NanoLuc fusion): 5 folds
Signal (full-length BTK protein; BTK_+DTT, compound concentration 0.0169 nM, listed as IRC-DiMe): 3.35E-05 and 3.58E-05
Signal (full-length BTK protein; BTK_+DTT, compound concentration 0.152 nM, listed as IRC-DiMe): 3.30E-05 and 3.12E-05
Signal (full-length BTK protein; BTK_+DTT, compound concentration 0.457 nM, listed as IRC-DiMe): 3.59E-05 and 3.58E-05
Signal (full-length BTK protein; BTK_+DTT, compound concentration 1.37 nM, listed as IRC-DiMe): 2.65E-05 and 2.79E-05
Signal (full-length BTK protein; BTK_+DTT, compound concentration 4.12 nM, listed as IRC-DiMe): 2.70E-05 and 2.48E-05
Signal (full-length BTK protein; BTK_+DTT, compound concentration 12.3 nM): 1.55E-05
Signal (full-length BTK protein; BTK_+DTT, compound concentration 37 nM, listed as IRC-DiMe): 6.57E-06 and 5.81E-06
Signal (full-length BTK protein; BTK_+DTT, compound concentration 111 nM, listed as IRC-DiMe): 1.60E-06 and 1.57E-06
Signal (full-length BTK protein; BTK_+DTT, compound concentration 333 nM, listed as IRC-DiMe): 2.79E-07 and 2.98E-07
Signal (full-length BTK protein; BTK_+DTT, compound concentration 1000 nM, listed as IRC-DiMe): 9.10E-08 and 8.06E-08
Signal (full-length BTK protein; BTK_-DTT, compound concentration 12.3 nM): 1.59E-05
Kd (full-length BTK protein): 0.011 µM
